The test system of the experiment is PMA-induced release of endogenous TNFα from human monocytic U-937 cells. Put plainly: ELISA-based TNFα release assay, PMA-induced, U-937 cells. Conditions: U-937, 1 h, PMA 25 ng/ml, Batimastat at 10 μM. It is filed as cell-based. How it is done:
In brief, on day 1, Nunc black MaxiSorp® 96-well plates (Thermo Fisher Scientific, USA) were coated overnight with 100 μl per well of mouse anti-human TNFα capture antibody (provided as part of the DuoSet ELISA kit) at 4 μg/ml TBS at 4° C. On day 2, the capture antibody solution was removed and MaxiSorp® plates were blocked with 300 μl per well of TBS, 1% BSA at room temperature for 1-2 hours. Meanwhile, 80,000 U-937 (European Collection of Authenticated Cell Cultures, UK) cells in 80 μl of normal growth medium were seeded in each well of Greiner CELLSTAR V-bottom 96-well plates (Thermo Fisher Scientific, USA) and pre-incubated with 20 μl per well of standard growth medium supplemented with Batimastat (BB94, Abcam, UK) at 50 μM as positive control (for a final concentration of 10 μM in the resulting 100 μl sample volume), mouse IgG antibody (Thermo Fisher Scientific, USA) at 5 μg/ml as isotype control (for a final concentration of 1 μg/ml in the resulting 100 μl sample volume) or antibodies of the invention at 5 μg/ml (for a final concentration of 1 μg/ml in the resulting 100 μl sample volume) at 37° C., 5% CO2 for 30 minutes. […] Using an infinite M1000 (Tecan Group, Switzerland) microplate reader, the fluorescence of each well was collected at an excitation wavelength of 435 nm and an emission wavelength of 555 nm. […]
Background: ELISA stands for enzyme-linked immunosorbent assay.

Each structure is given as a SMILES string.

By inhibition is commonly meant how much of the control response was suppressed.

With `CNC(=O)[C@H](Cc1ccccc1)NC(=O)[C@H](CC(C)C)[C@H](CSc1cccs1)C(=O)NO` [Batimastat], the inhibition at 10 µM turned out to be 98.7% (murine (m) and chimeric (ch) antibodies and IgG at 3 μg/ml); 100% (recombinant murine antibodies and IgG at 1 μg/ml).

(Values after patent publication US20240287172A1, “PROTEIN BINDERS TO IRHOM2 EPITOPES” (SCIRHOM GMBH, priority 2019, published 2024).)
